≈ marks a conversion by molar mass, not a printed value. Where a SMILES comes first, the peptide text is derived from it.
Legend:
[1] = test system: C. albicans (ATCC CRM 10231); type: cell-based, Candida albicans
Method: (§1) The method of antimicrobial assay is based on the Methods for Dilution Antimicrobial Susceptibility Tests for Bacteria that Grow Aerobically from the Clinical and Laboratory Standards Institute (CLSI).The antimicrobial activities of peptides were evaluated against Gram-positive bacteria S. aureus (ATCC 6538), MRSA (NCTC 12493), E. faecalis (NCTC 12493), Gram-negative bacteria E. coli (ATCC CRM 8739), K. pneumoniae (ATCC 43816), P. aeruginosa (ATCC CRM 9027), yeast C. albicans (ATCC CRM 10231) and clinical isolates MRSA (B042 V2E1 A), E. coli (ATCC BAA-2340), K. pneumoniae (ATCC BAA-1705), P. aeruginosa (B004 V2S2 B).
(§2) At the first stage of the assay, 20 μL bacteria were cultured in 100 mL Mueller Hinton Broth (MHB) or Yeast Extract–Peptone–Dextrose broth (YPD-B), respectively, and was incubated overnight. Then, microorganisms were subcultured in 20 mL fresh MHB or YPD-B to achieve cultures in the logarithmic phase (1 × 10^8 CFU/mL), which can be verified by optical density (OD) (The OD of Gram-positive bacteria is 0.23, OD of Gram-negative bacteria is 0.4, and OD of yeast is 0.15), and viable cell counts. Then, the medium was used to dilute the cultures to specific cell densities (Gram-negative and Gram-positive bacteria: 5 × 10^5 CFU/mL; yeast: 1 × 10^6 CFU/mL), which were the final concentrations of bacterial suspensions used in the assay. The peptides were dissolved in DMSO to reach a final concentration of 512 µM. A series of two-fold dilutions ranging from 512 µM to 1 µM were dosed in the 96-well plates.
(§3) Antimicrobial assays were conducted in 96-well plates, which were divided into five groups, including a negative control group (PBS), a positive control group (20 μg/mL norfloxacin for bacteria and 10 μg/mL amphotericin B for yeast), vehicle control (1% DMSO), blank control (MHB or YPD-B), and a peptide group. Each microorganism had five repetitions, and each well contained 1 µL corresponding solution and 99 µL culture. After incubation at 37 °C overnight, the absorbance of each well was tested by a microplate reader (EL808, Biolise BioTek Winooski, Minneapolis, USA) under a 550 nm wavelength. The MIC is the lowest concentration at which no bacterial growth can be observed.
(§4) The next day, 10 µL of every clear well was taken out to be cultured on a Mueller Hinton Agar (MHA) plate and incubated at 37 °C for 16–20 h. The MBC is the lowest concentration without any bacterial colonies, which means at this concentration, the peptide reduces the viability of the pathogen by more than 99.9%.

[2] = test system: S. aureus (ATCC 6538) biofilm; type: cell-based, Staphylococcus aureus; conditions: ATCC 6538, 24 h
Method: (§5) The anti-biofilm activities of the peptides against S. aureus (ATCC 6538), MRSA (NCTC 12493), E. faecalis (NCTC 12493), E. coli (ATCC CRM 8739), K. pneumoniae (ATCC 43816), and P. aeruginosa (ATCC CRM 9027) were evaluated.
(§6) The bacteria were inoculated in a different medium (Gram-positive bacteria were in TSB and Gram-negative bacteria were in LB) overnight, and the subculture was conducted in the same medium. When the bacteria reached a specific density, 100 µL of the dilution was added to each well of the 96-well microplate. Then 1 µL of peptide at a series of concentrations, the same concentration in the antimicrobial assay, were added into the well together with the bacteria. The plates were put into a moist shaking incubator with a speed of 200 rpm, and the temperature was set at 37 ℃. After a 24-h incubation, the liquid in the wells was aspirated, and each was washed twice by 100 µL PBS. One hundred µL of methanol were added into each well to stabilise the biofilm. After air-drying, 100 µL crystal violet was used to dye the biofilm, and they were dissolved in the 100 µL glacial acidic acid after drying. The solutions were transferred to a new microplate, and the absorbance of each well was tested by a microplate reader (EL808, Biolise BioTek Winooski, Minneapolis, MN, USA) at 595 nm wavelength. MBIC was the minimum concentration of the peptide showing no biofilm formation.
(§7) The bacteria were inoculated in a different medium (Gram-positive bacteria were in TSB and Gram-negative bacteria were in LB) overnight, and the subculture was conducted in the same medium. When the bacteria reached a specific density, 100 µL of the dilution was added to each well of the 96-well microplates. The plates were put into a moist shaking incubator with a speed of 200 rpm and the temperature was 37 ℃. After a 24 h incubation, the liquid in the wells was aspirated and they were washed twice by 100 µL PBS of each well. The peptides with the same concentrations were diluted in the corresponding medium and 100 µL were added into each well. After a 24-h incubation, the liquid in the wells was aspirated and they were washed twice by 100 µL PBS. One hundred µL of methanol were added into the wells to stabilise the biofilms. After being air-dried, 100 µL crystal violet was used to dye the biofilm, and they were dissolved in the 100 µL glacial acidic acid after drying. The solutions were transferred to a new microplate, and the absorbance of each well was tested by a microplate reader (EL808, Biolise BioTek Winooski, Minneapolis, USA) at 595 nm wavelength.

E. faecalis (NCTC 12493) = type: cell-based, Enterococcus faecalis
Method: as §1, §2, §3, §4

[3] = test system: E. faecalis (NCTC 12493) biofilm; type: cell-based, Enterococcus faecalis; conditions: NCTC 12493, 24 h
Method: as §5, §6, §7

[4] = test system: P. aeruginosa (ATCC CRM 9027) biofilm; type: cell-based, Pseudomonas aeruginosa; conditions: ATCC CRM 9027, 24 h
Method: as §5, §6, §7

MRSA (B042 V2E1 A) = type: cell-based, Methicillin-resistant Staphylococcus aureus
Method: as §1, §2, §3, §4

MRSA (NCTC 12493) = type: cell-based, Methicillin-resistant Staphylococcus aureus
Method: as §1, §2, §3, §4

[5] = test system: E. coli (ATCC CRM 8739) biofilm; type: cell-based, Escherichia coli; conditions: ATCC CRM 8739, 24 h
Method: as §5, §6, §7

[6] = test system: K. pneumoniae (ATCC 43816) biofilm; type: cell-based, Klebsiella pneumoniae; conditions: ATCC 43816, 24 h
Method: as §5, §6, §7

S. aureus (ATCC 6538) = type: cell-based, Staphylococcus aureus
Method: as §1, §2, §3, §4

CC[C@H](C)[C@H](NC(=O)[C@@H](NC(=O)CN)C(C)C)C(=O)N[C@H](C(=O)N[C@@H](CC(=O)O)C(=O)N[C@H](C(=O)N[C@@H](CC(C)C)C(=O)N[C@@H](CCCCN)C(=O)NCC(=O)N[C@@H](C)C(=O)N[C@@H](C)C(=O)N[C@@H](CCCCN)C(=O)N[C@H](C(=O)N[C@H](C(=O)N[C@@H](C)C(=O)N[C@@H](C)C(=O)N[C@@H](CCC(=O)O)C(=O)N[C@@H](CC(C)C)C(=O)N[C@@H](CC(C)C)C(=O)N[C@@H](CCCNC(=N)N)C(=O)N[C@@H](CCCCN)C(=O)N[C@@H](C)C(=O)N[C@@H](Cc1c[nH]cn1)C(N)=O)C(C)C)[C@@H](C)O)[C@@H](C)O)[C@@H](C)CC [tB2U] (H-GVIIDTLKGAAKTVAAELLRKAH-NH2)
MBC [1]: >512 µM | MIC [1]: >512 µM | MBEC [2]: >512 µM | MBIC [2]: >512 µM | MBC (E. faecalis (NCTC 12493)): >512 µM | MIC (E. faecalis (NCTC 12493)): >512 µM | MBEC [3]: > 512 µM | MBIC [3]: 256 µM | MBEC [4]: >512 µM | MBIC [4]: >512 µM | MBC (MRSA (B042 V2E1 A)): >512 µM | MIC (MRSA (B042 V2E1 A)): >512 µM | MBC (MRSA (NCTC 12493)): >512 µM | MIC (MRSA (NCTC 12493)): >512 µM | MBEC [5]: >512 µM | MBIC [5]: >512 µM | MBEC [6]: >512 µM | MBIC [6]: >512 µM | MBC (S. aureus (ATCC 6538)): > 512 µM | MIC (S. aureus (ATCC 6538)): 256 µM (≈ 608 µg/mL)

Reference: article PMC8388802, “Study on the Structure-Activity Relationship of an Antimicrobial Peptide, Brevinin-2GUb, from the Skin Secretion of Hylarana guentheri” (Antibiotics, 2021)
